No end group written: not given here.
Assays:
[1] = system: Anxa1-expressing mouse endothelial F-2 cells; assay: binding to the surface of F-2 cells cultured in vitro; type: cell-based
Procedure: (§1) A. Binding of IF7C(RR)-conjugated FITC-polylysine on the surface of mouse endothelial F-2 cells cultured in vitro. B. Transport of […] FITC-poly-L-lysine through apical surface to basal space of F-2 cells monolayer. F-2 cells cultured on a filter of trans well insert was added with IF7C(RR)-conjugated FITC-poly-L-lysine to allow the reagent being bound to apical cell surface of F-2 cells. After washing the monolayer with medium, insert was placed in wells containing medium at 37° C. or at 4° C. Fluorescence moved to the lower chamber of insert was measured. C. Targeting and penetration of intravenously injected IF7C(RR)-conjugated FITC-poly-L-lysine in the B16 tumor in vivo in the mouse. Tissue section was immunostained for endothelial cell marker CD31.
(§2) Thus IFLLWQR-C-RR (SEQ ID NO: 17) or IF7C(RR) was synthesized. […] The cytoplasmic and nuclear FITC signals are consistent with the localization of Anxa1 in the cytoplasm and nucleus (Gerke, 2005 #5299). […] (FIG. 12B). […] To determine if the binding and transport of IF7C(RR) occur in vivo in the tumor vasculature, IF7C(RR)-conjugated FITC-poly-L-lysine was injected intravenously into a B16 tumor-bearing mouse. […] Small molecules such as SN-38 conjugated with IF7C(RR) can penetrate to the tumor deeper and faster than the large molecule such as poly-L-lysine.

F-2 cells monolayer = assay: transport through F-2 cell monolayer in trans well chamber; type: cell-based, mouse
Procedure: as §1, §2

B16 tumor vasculature = assay: targeting and penetration in B16 tumor vasculature after intravenous injection; type: in vivo; conditions: B16 tumor-bearing mouse
Procedure: as §1, §2

Anxa1-His protein [2] = target: T1, Anxa1-His protein (Homo sapiens, UniProt P04083); assay: isothermal titration calorimetry (ITC) with Anxa1-His protein; type: binding; conditions: qualitative
T1 construct: Full-length cDNA encoding Anxa1 was obtained from Invitrogen (Carlsbad, Calif.) and subcloned into pET29a vector; His6 (C); made in house; host or cells: bacteria (pET29a vector, Novagen)
T1 sequence (P04083 1-346): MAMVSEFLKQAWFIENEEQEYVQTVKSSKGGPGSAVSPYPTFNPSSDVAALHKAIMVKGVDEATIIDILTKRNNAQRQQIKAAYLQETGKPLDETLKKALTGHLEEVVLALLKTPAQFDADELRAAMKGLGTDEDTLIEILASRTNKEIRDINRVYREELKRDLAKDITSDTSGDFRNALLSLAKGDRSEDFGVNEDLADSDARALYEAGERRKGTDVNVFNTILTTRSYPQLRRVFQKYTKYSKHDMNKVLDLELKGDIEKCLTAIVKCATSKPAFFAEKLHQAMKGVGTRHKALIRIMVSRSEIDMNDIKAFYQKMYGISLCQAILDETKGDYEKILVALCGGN
Procedure: ITC was performed on a VP-ITC calorimeter from Microcal (Northampton, Mass.). In this analysis IF7K3C peptide or […] (SEQ ID NO:12), in which IF7 was modified by inserted with three lysine residues between IF7 and C to increase solubility in water. Eight μl aliquots of solution containing 1.0 or 1.5 mM were injected into the cell containing 100 or 150 μM Anxa1-His protein. In each experiment 37 injections were made. The experiments were performed at 23° C. in buffer containing 20 mM Tris pH 7.9, 250 mM NaCl, 1 mM CaCl2 and 10% dimethylsulfoxide. Experimental data were analyzed using Microcal Origin software provided by the ITC manufacturer (Microcal, Northampton, Mass.).

Anxa1-His protein [3] = target: T1, Anxa1-His protein; assay: surface plasmon resonance on Anxa1 coated chip; type: binding; conditions: qualitative
Procedure: IASys (Affinity Sensors, Cambridge, UK) was used. Anxa1-His protein was immobilized on the sensor chip by cross-linking to the aminosilane surface using bis[sulfosuccinimidyl] substrate (Pierce). Binding of IF7C dissolved in TBSC was recorded for 2 min, and dissociation of IF7C was initiated by adding TBSC to the sensor chip and the arc second was recorded for 5 min.

Anxa1-His6 protein = target: T2, Anxa1-His6 protein (Homo sapiens, UniProt P04083); assay: inhibition of binding of FITC-labeled polyacrylamide-LeA oligosaccharide to Anxa1-His6
T2 construct: Full-length cDNA encoding Anxa1 was obtained from Invitrogen (Carlsbad, Calif.) and subcloned into pET29a vector; His6 (C); made in house; host or cells: bacteria (pET29a vector, Novagen)
T2 sequence (P04083 1-346): T1 sequence (P04083 1-346)
From the text: (§3) FIGS. 1A-1H show the essential role of annexin 1 (Anxa1) in tumor growth and identification of a peptide sequence with tumor vasculature targeting activity in vivo. A and B. Growth of B16 tumors subcutaneously injected into Anxa1(+/−) and Anxa1(−/−) mutant mice. C. Histology of B16 tumors produced in Anxa1(+/−) and Anxa1(−/−) mice. Each scale bar represents 2.00 mm. D. Immunohistochemistry of B16 tumors for CD31 showing endothelial cells and vasculature. Each scale bar represents 200 μm. E. In vivo phage targeting in B16 tumor-bearing mice. Numbers of transformed colonies recovered from the tumor or lung were determined. […] F. In vivo tumor and organ targeting activity of IFLLWQR (SEQ ID NO:2) displaying phage. Phage was injected into B16 tumor bearing mice pre-injected with anti-Anxa1 antibody or with control rabbit IgG. G. In vitro plate assay for binding of IF7-A488 (upper line) and control RQ7-A488C (lower line) to recombinant […] protein produced by bacteria. H. Effect of IF7 (upper line) and control RQ7 (lower line) on binding of FITC-labeled polyacrylamide-LeA oligosaccharide to Anxa1-His6 protein.
Full-length cDNA encoding Anxa1 was obtained from Invitrogen (Carlsbad, Calif.) and subcloned into pET29a vector (Novagen) to produce an […] fusion protein. […] After washing the plate, fluorescence was measured by a Molecular Devices Analyst HT plate reader. […]

B16 tumor = assay: in vivo phage targeting in B16 tumor-bearing mice; parameters: species or system mouse
From the text: as §3
Mouse melanoma B16F1 cells (2×10^5 cells/100 μl PBS) were injected subcutaneously into the dorsal flank of C57BL/6 female mice (8-10 weeks old). […] Colonies appearing on an agar plate after culturing at 37° C. for 20 hours were counted.

[4] = system: Mouse melanoma B16F1 tumors; type: in vivo; conditions: B16 melanoma, 0.13 μmoles iv
Procedure: (a) Mouse melanoma B16F1 tumors were grown subcutaneously in C57BL6 mice. On day 10, each mouse was injected intravenously with either 100 μl of 5% glucose or that containing 0.13 μmoles of each IF7, GA, or IF7-GA. Injections were administered every other day, for a total of three injections, until day 14. […] B, Histochemistry of tumors from the mice intravenously injected with the compounds described in A. Apoptotic tumor cells along blood vessels in transplanted tumors are detected by TUNEL assay. B16 melanoma (a), LLC lung carcinoma (b), PC3 prostate tumor (c) and MDA-MB-231 breast tumor (d) from mice treated with each compound.
Injections were administered every other day, for a total of 7 injections, until day 26, as shown by arrows.

[5] = system: Mouse Lewis lung carcinoma (LLC) tumors; assay: subcutaneous Lewis lung carcinoma tumor model; type: in vivo; conditions: 0.13 μmoles iv
Procedure: (§4) FIGS. 6A and 6B show the effect of IF7-GA on melanoma, lung carcinoma, prostate cancer, and breast cancer mouse models. A, Effect of IF7-GA on tumor size. […] Mice were euthanised on day 15 to measure tumor weight. […] Mice were euthanised on day 13 and tumors weighed. (c) Human prostate cancer PC3 tumors were grown orthotopically in the prostate of SCID mice. On day 7, each mouse was injected intravenously with the compounds as in A-a, and injections administered every 4 days, for a total of four injections, until day 22. Mice were euthanised on day 28 and tumors weighed. (d) Human breast cancer MDA-MB-231 tumors were grown orthotopically in fat pads of SCID mice. On day 7, each mouse was injected intravenously with the compounds as in A-a, and injections performed every 4 days, for a total of four injections, until day 22. […] B, Histochemistry of tumors from the mice intravenously injected with the compounds described in A. Apoptotic tumor cells along blood vessels in transplanted tumors are detected by TUNEL assay. […]
(§5) Mouse melanoma B16F1 cells (2×10^5 cells/100 μl serum-free DMEM) were injected subcutaneously into the dorsal flank of C57BL/6 female mice (8-10 weeks old). […] On day 15, mice were sacrificed and tumor weights determined. […] On day 13, mice were sacrificed and tumor weights determined. […] On day 28, mice were sacrificed and prostate tumor weights determined. […]

[6] = system: Human prostate cancer PC3 tumors; assay: orthotopic PC3 prostate cancer model in SCID mice; type: in vivo; conditions: 0.13 μmoles iv
Procedure: as §4, §5

[7] = system: Human breast cancer MDA-MB-231 tumors; assay: orthotopic MDA-MB-231 breast cancer model in SCID mice; type: in vivo; conditions: MDA-MB-231 breast tumor, 0.13 μmoles iv
Procedure: as §4, §5

Row | Substance | binding to the surface of F-2 cells [1] | transport of fluorescence to the lower chamber at 4° C. (F-2 cells monolayer; 4° C.) | transport of fluorescence to the lower chamber at 37° C. (F-2 cells monolayer; 37° C.) | localization of fluorescence in tumor tissue sections (B16 tumor vasculature) | binding to Anxa1 by isothermal titration assay (Anxa1-His protein [2]) | binding to Anxa1 by surface plasmon resonance (Anxa1-His protein [3]) | inhibition of fucosylated carbohydrate (LeA) binding to Anxa1 (Anxa1-His6 protein) | targeting to the lung in tumor-bearing mice (B16 tumor; mouse, in vivo) | organ targeting of intravenously injected phage clone (B16 tumor; tumor versus lung, B16 tumor-bearing mice) | apoptosis of perivascular tumor cells (TUNEL, histochemistry) [4] | apoptosis of perivascular tumor cells (TUNEL) [5] | apoptosis of perivascular tumor cells (TUNEL) [6] | apoptosis of perivascular tumor cells (TUNEL) [7]
1 | IF7C(RR)-conjugated FITC-poly-L-lysine: IF7C(RR) conjugated to FITC-poly-L-lysine (IFLLWQRCRR; also: conjugated to FITC-poly-L-lysine, site not given here) | bound to the surface of Anxa1-expressing mouse endothelial F-2 cells | not at 4 °C | fluorescence migrated to the lower chamber | green fluorescence signals around the abluminal area of the vasculatures |  |  |  |  |  |  |  |  | 
2 | IFLLWQR (annexin-1 binding compound) [IF7] |  |  |  |  | confirmed | confirmed | inhibited by IF7 | could not be detected | targets tumor but not lung tissue | rarely show apoptosis | rarely show apoptosis | rarely show apoptosis | rarely show apoptosis

Reference: patent US9610359B2, “Methods and compositions related to annexin 1-binding compounds” (Burnham Institute for Medical Research, priority 2009, dated 2017)
